Test results: US20030199515A1, “Method for the preparation of crystalline tetrahydrobenzothiepines” (G.D. SEARLE, LLC, priority 2001, published 2003)

Test: Water uptake experiments (Dynamic Vapor Sorption water sorption/desorption isotherms)
Format: physicochemical
Conditions: for hygroscopicity (in words): crystalline form
Protocol: Water sorption experiments are performed on a Dynamic Vapor Sorption (DVS) apparatus (DVS-1000 manufactured by Surface Measurements Systems, Inc.). Experiments are performed at 25° C. by initially drying the material of interest (about 10 mg sample) from 30% relative humidity (RH) (ambient room condition) to about […] in a stepwise fashion (10% RH step) by purging with dry nitrogen until no further weight change was observed. The samples are then exposed to a stepwise (10% RH steps) increase in RH from about 0 to about 90% RH. Each successive step is initiated when the change in weight over time at the relative humidity was less than 0.0003% ((dm/dt)/m0×100, where m is mass in mg, m0 is initial mass, and t is time in minutes). The sample is then taken through the reverse of the stepwise % RH increase. The data are collected on a computer and analyzed using SMS′ proprietary MS-Excel macro interface software.

Row | SMILES | hygroscopicity (in words) | hygroscopicity (in words) (listed as form II) | weight gain of a dry sample (% of its own weight) when equilibrated under humid air (dry sample, equilibrated under 80% relative humidity (RH) air at 25° C.)
1 | CCCCC1(CCCC)CS(=O)(=O)c2ccc(N(C)C)cc2[C@@H](c2ccc(OCc3ccc(C[N+]45CCN(CC4)CC5)cc3)cc2)[C@H]1O.[Cl-] [Form I, (4R,5R)-1-((4-(4-(3,3-dibutyl-7-(dimethylamino)-2,3,4,5-tetrahydro-4-hydroxy-1,1-dioxido-1-benzithiepin-5-yl)phenoxy)methyl)phenyl)methyl-4-aza-1-azoniabicyclo[2.2.2]octane Chloride] | hygroscopic | – | –
2 | CCCCC1(CCCC)CS(=O)(=O)c2ccc(N(C)C)cc2[C@@H](c2ccc(OCc3ccc(C[N+]45CCN(CC4)CC5)cc3)cc2)[C@H]1O.[Cl-] [Form II, (4R,5R)-1-((4-(4-(3,3-dibutyl-7-(dimethylamino)-2,3,4,5-tetrahydro-4-hydroxy-1,1-dioxido-1-benzithiepin-5-yl)phenoxy)methyl)phenyl)methyl-4-aza-1-azoniabicyclo[2.2.2]octane Chloride] | essentially nonhygroscopic | essentially non-hygroscopic | less than 1%
